From US20130136809A1, “7-HYRDROXYFRULLANOLIDE ITS ANALOGS FOR PREVENTION CONTROL AND TREATMENT OF METABOLIC DISORDERS” (LAILA NUTRACEUTICALS, priority 2009, published 2013)

Tests used:
Assay type in all cases: cell-based, mouse
CD36 [1] = test: Immunoblot of CD36 expression in high glucose induced J774 macrophage cells; conditions: 1 μg/ml; 600 mg/dL glucose, 5 days
Description: Experimental protocol: This was evaluated in glucose induced J774, mouse macrophage cells. Briefly, the cells were cultured in DMEM with 2 mM Glutamine, 100 U/mL penicillin, […] streptomycin and 10% fetal bovine serum (Hyclone, Logan, Utah). Equal number of cells was seeded into 35 mm petri dishes (Corning, USA) one day before the experiment. The culture media was replaced with fresh, glucose free DMEM supplemented with 10% fetal bovine serum. 7-HF was diluted at […] and all cultures were pre-incubated for 2 hours at 5% CO2 at 37° C., and then incubated with 600 mg/dL of glucose for 5 days. Representative photomicrographs showing inhibition of lipid accumulation by 7-HF in high glucose induced macrophage cells of an in vitro model of atherosclerosis are shown in Figure IV. The control culture was supplemented with 100 mg/dL glucose. […] Protein concentration was measured by Bradford method.
Inhibition of CD36 protein expression in high glucose induced J774 macrophage cells in presence or absence of 7-HF was evaluated in immunoblot assay. […] Finally, the specific immuno-reactive bands were developed with West-pico chemiluminescent substrate (Pierce Biotechnology, IL, USA), and the immunoblot images were recorded in a Kodak Image Station (Kodak, USA). Band intensities were calculated densitometrically and normalized with expression of actin in respective samples.

aP2 = test: Immunoblot of aP2 expression in 3T3-L1 adipocytes; conditions: 1 ug/ml; normalized with actin
Description: (§1) Experimental protocol: Mouse pre-adipocyte 3T3-L1 cells are maintained in Dulbecco's Modified Eagles Medium (DMEM) supplemented with 2 mM glutamine, 4.5 g/L glucose and 10% fetal bovine serum. Equal number of cells was plated in each well of 24-well culture plates. Cells were pre-treated separately with 1 μg/mL 7-hydroxyfrullanolide for 2 h and followed by addition of differentiation medium containing 500 nM insulin, 1.0 μM dexamethasone, and 0.5 mM isobutylmethylxanthine (IBMX) for 48 h. Thereafter, cells were further incubated with post differentiation medium (DMEM containing 100 nM insulin) in presence or absence of 7-HF. […] Protein content was measured in Bradford method by using Coomassie blue dye and cell lysates were stored in aliquots at −80° C. until further use. The modulation of adipocyte differentiation markers such as Peroxisome proliferator-activated receptor gamma (PPARγ), CD36, adipocyte fatty acid binding protein (aP2); and intracellular lipid droplet surface associated protein, perilipin expression were evaluated by immunoblot assay.
(§2) Inhibition of protein expression of biomarker molecules adipocytes in presence or absence of 7-hydroxyfrullanolide (7-HF) was evaluated in immunoblot assay. […] Band intensities were calculated densitometrically and normalized with expression of actin in respective samples.

CD36 [2] = test: Immunoblot of CD36 expression in 3T3-L1 adipocytes; conditions: 1 ug/ml; normalized with actin
Description: as §1, §2

[3] = test system: 3T3-L1 pre-adipocyte cells; test: Inhibition of lipid accumulation in differentiated adipocytes (Oil Red O); conditions: Homo sapiens, 3T3-L1 adipocytes
Description: One hundred thousand 3T3-L1 […] pre-adipocyte cells in Dulbecco's Modified Eagles Medium (DMEM) containing 10% Fetal Bovine Serum (FBS) were taken into each well of a 24-well plate and incubated for 48 h at 37° C. and 5% CO2. The differentiation of pre-adipocyte cells was initiated in a differentiation medium containing 10 μg/ml insulin, 1.0 μM dexamethasone, and 0.5 mM isobutylmethylxanthine (IBMX) for 48 h. After this the medium was replaced by DMEM containing 10 ug/ml insulin and incubated for 3 days. Then the differentiating cells were treated with […] of 7-hydroxyfrullanolide (1) or different natural analogs (structure numbers 3 to 11) or semi-synthetic analogs (structure numbers 12 to 25) of 7-HF. The cells were maintained in the medium for another 3-5 days. The cells incubated with 0.1% DMSO were considered as the vehicle control. After the incubation period, cells were washed with phosphate buffered saline (PBS) and fixed with 10% buffered formalin for 1 h at room temperature. One small aliquot of cell suspension was separated for cell counting in hemocytometer chamber. Fixed cells were stained with Oil Red O solution to measure the cellular neutral lipid accumulation. Briefly, cells were washed with PBS, fixed with 10% buffered formalin and stained with Oil Red O solution (0.5 g in 100 ml isopropanol) for […]. After removing the staining solution, the dye retained in the cells will be eluted into isopropanol and OD measured at 550 nm. The inhibition of fat accumulation in the treated cells was compared with the mock treated differentiated adipocytes. The treated and control cells were also analyzed and compared for inhibition of lipid accumulation visually under microscope and recorded digitally in suitable image capture system. The anti-adipogenic activity by 7-HF is depicted in Figure I and the percentage inhibition of lipid accumulation shown by 7-HF and its natural and semi-synthetic analogs is summarized in Table-1.

With `C=C1C(=O)O[C@H]2C3=C(C)CCC[C@]3(C)CC[C@@]12O` [7-HF (1), 7-hydroxyfrullanolide] the “CD36 levels in high glucose induced macrophage cells” value (CD36 [1]) was “reduced back towards their base values”, the aP2 protein expression (aP2) was “down-regulation” and the CD36 protein expression (CD36 [2]) was “down-regulation”. It also gave an inhibition at 1 µg/mL ([3]; 1.0 μg/mL) of 52.5% and an inhibition at 2.5 µg/mL ([3]; 2.5 μg/mL) of 63.5%.
